Converted amounts (≈) assume the structure as drawn. “And” between values parts separate entries of the source, which are not always exact repeats. Identical values can stand only once. Like-named read-outs stand apart in the source and are kept apart here.
Legend:
[1] = in vivo; conditions: mouse, po
[2] = tested on: cowpox virus (CV); conditions: in vitro, read-out: 50% effective concentration [EC50], inhibition of virus replication; cited from earlier work
[3] = both, cynomolgus monkey, in vivo; for AUCINF—obs / Cmax / CL / T1/2 / Tmax: iv
[4] = physchem; conditions: aqueous with cosolvent or surfactant or cyclodextrin
[5] = tested on: monkeypox; conditions: in vitro, read-out: 50% effective concentration [EC50], inhibition of virus replication; cited from earlier work
[6] = in vivo; conditions: New Zealand White, rabbit, iv; for clearance: CL
[7] = both, cynomolgus monkey, in vivo, po
[8] = in vivo; conditions: both, cynomolgus monkey, po; for AUC(0-inf): AUCINF—obs
[9] = tested on: CV; conditions: in vivo; cited from earlier work
[10] = physchem; conditions: thermodynamic from solid
[11] = tested on: ECTV; conditions: in vivo; cited from earlier work

O=C(NN1C(=O)C2C3C=CC(C4CC34)C2C1=O)c1ccc(C(F)(F)F)cc1 (stereo not drawn) [ST-246, 4-trifluoromethyl-N-(3,3a,4,4a,5,5a,6,6a-octahydro-1,3-dioxo-4,6-ethenocycloprop[f]isoindol-2(1H)-yl)-benzamide]
half-life ([1]; female, BALB/c): 132 to 270 min | CL/F ([1]; female, BALB/c, 30 mg/kg): 1.7 mL/min/kg | half-life ([1]; female, BALB/c, 30 mg/kg): 144 min | AUC(0-t) ([1]; female, BALB/c, 30 mg/kg, AUC0-24): 292 µg·h/mL | AUC(0-t) ([1]; female, BALB/c, 30 mg/kg, AUC0-24 hr): 292 µg·h/mL | Cmax ([1]; female, BALB/c, 30 mg/kg): 37.5 µg/mL | CL/F ([1]; female, BALB/c, 100 mg/kg): 3.65 mL/min/kg | half-life ([1]; female, BALB/c, 100 mg/kg): 132 min | AUC(0-t) ([1]; female, BALB/c, 100 mg/kg, AUC0-24 hr): 456 µg·h/mL | Cmax ([1]; female, BALB/c, 100 mg/kg): 43.8 µg/mL | CL/F ([1]; female, BALB/c, 300 mg/kg): 7.3 mL/min/kg | half-life ([1]; female, BALB/c, 300 mg/kg): 246 min | AUC(0-t) ([1]; female, BALB/c, 300 mg/kg, AUC0-24 hr): 669 µg·h/mL | Cmax ([1]; female, BALB/c, 300 mg/kg): 64 µg/mL | CL/F ([1]; female, BALB/c, 1000 mg/kg): 18.9 mL/min/kg | half-life ([1]; female, BALB/c, 1000 mg/kg): 270 min | AUC(0-t) ([1]; female, BALB/c, 1000 mg/kg, AUC0-24 hr): 852 µg·h/mL | Cmax ([1]; female, BALB/c, 1000 mg/kg): 66 µg/mL | AUC(0-t) ([1]; female, 100 mg/kg, AUC0-24): 456 µg·h/mL | AUC(0-t) ([1]; female, 300 mg/kg, AUC0-24): 669 µg·h/mL | Cmax ([1]; female, 300 mg/kg): 64 µg/mL | AUC(0-t) ([1]; female, 500 mg/kg, AUC0-24): 515 µg·h/mL | Cmax ([1]; female, 500 mg/kg): 56.6 µg/mL | AUC(0-t) ([1]; female, 600 mg/kg, AUC0-24): 854 µg·h/mL | Cmax ([1]; female, 600 mg/kg): 95.3 µg/mL | Cmax ([1]; female, 1000 mg/kg): 66.3 µg/mL | AUC(0-t) ([1]; female, 2000 mg/kg, AUC0-24): 607 µg·h/mL | Cmax ([1]; female, 2000 mg/kg): 69.9 µg/mL | AUC(0-t) ([1]; male, BALB/c, 30 mg/kg, AUC0-24): 241 µg·h/mL | Cmax ([1]; male, BALB/c, 30 mg/kg): 30.4 µg/mL | Cmax ([1]; male, BALB/c, 100 mg/kg): 38.4 µg/mL | AUC(0-t) ([1]; male, 100 mg/kg, AUC0-24): 343 µg·h/mL | AUC(0-t) ([1]; male, 300 mg/kg, AUC0-24): 484 µg·h/mL | Cmax ([1]; male, 300 mg/kg): 48.5 µg/mL | AUC(0-t) ([1]; male, 500 mg/kg, AUC0-24): 413 µg·h/mL | Cmax ([1]; male, 500 mg/kg): 36.6 µg/mL | AUC(0-t) ([1]; male, 600 mg/kg, AUC0-24): 765 µg·h/mL | Cmax ([1]; male, 600 mg/kg): 82.8 µg/mL | Cmax ([1]; male, 1000 mg/kg): 61.1 µg/mL | AUC(0-t) ([1]; male, 2000 mg/kg, AUC0-24): 508 µg·h/mL | Cmax ([1]; male, 2000 mg/kg): 50.9 µg/mL | EC50 [2]: ≤ 70 nM | Cmax higher for 4 hour vs 6 hour infusions [3]: approximately 50% | exposure higher for 4 hour vs 6 hour infusions [3]: approximately 20% | terminal elimination half-life [3]: 9.1 h | AUCINF—obs ([3]; 1 mg/kg): 1.94 ± 0.46 µg·h/mL | Cmax ([3]; 1 mg/kg): 0.384 ± 0.112 µg/mL | AUCINF—obs ([3]; 3 mg/kg): 5.83 ± 0.87 µg·h/mL | Cmax ([3]; 3 mg/kg): 1.05 ± 0.19 µg/mL | CL ([3]; 10 mg/kg): 429 ± 74 mL/h/kg | T1/2 ([3]; 10 mg/kg): 8.9 ± 2.5 h | AUCINF—obs ([3]; 15 mg/kg): 48.7 ± 7.5 µg·h/mL | Cmax ([3]; 15 mg/kg): 9.08 ± 0.95 µg/mL | AUCINF—obs ([3]; 20 mg/kg): 47.9 ± 6.1 µg·h/mL | CL ([3]; 20 mg/kg): 433 ± 53 mL/h/kg | Cmax ([3]; 20 mg/kg): 7.48 ± 0.40 µg/mL | Tmax ([3]; 20 mg/kg): 6 h | AUCINF—obs ([3]; 30 mg/kg): 87.2 ± 14.6 µg·h/mL | CL ([3]; 30 mg/kg): 362 ± 61 mL/h/kg | Cmax ([3]; 30 mg/kg): 13.9 ± 1.3 µg/mL | T1/2 ([3]; 30 mg/kg): 6.9 ± 0.8 h | Tmax ([3]; 30 mg/kg): 6 h | solubility ([4]; 4 °C, Solubility of ST-246, 4 ° C.): 6290 µg/mL (≈ 16.7 mM) | solubility ([4]; 25 °C, Solubility of ST-246, 25 ° C.): 7570 µg/mL (≈ 20.1 mM) | solubility ([4]; 40 °C, Solubility of ST-246, 40 ° C.): 11200 µg/mL (≈ 29.7 mM) | solubility ([4]; 60 °C, Solubility of ST-246, 60 ° C.): 16200 µg/mL (≈ 43.2 mM) | EC50 [5]: ≤ 70 nM | AUC(0-t) ([6]; 1 mg/kg, AUC0-24 hr): 1430 ± 400 ng·h/mL | clearance ([6]; 1 mg/kg): 27.7 mL/min/kg | Cmax ([6]; 1 mg/kg, Cmax): 1670 ± 2270 ng/mL | half-life ([6]; 1 mg/kg, T1/2): 54 ± 12 min | AUC(0-t) ([6]; both, 3 mg/kg, AUC0-24): 2380 ng·h/mL | AUC(0-t) ([6]; both, 3 mg/kg, AUC0-24 hr): 2380 ± 930 ng·h/mL | clearance ([6]; both, 3 mg/kg): 22.3 mL/min/kg | Cmax ([6]; both, 3 mg/kg, Cmax): 3030 ± 370 ng/mL | Cmax ([6]; both, 3 mg/kg, mean Cmax): 5790 ng/mL | AUC(0-t) ([6]; both, 30 mg/kg, AUC0-24 hr): 13300 ± 700 ng·h/mL | clearance ([6]; both, 30 mg/kg): 37.1 mL/min/kg | Cmax ([6]; both, 30 mg/kg, Cmax): 38500 ± 3700 ng/mL | half-life ([6]; both, 30 mg/kg, T1/2): 732 ± 348 min | AUC(0-t) ([6]; both, 60 mg/kg, AUC0-24 hr): 61800 ± 8700 ng·h/mL | clearance ([6]; both, 60 mg/kg): 16.4 mL/min/kg | Cmax ([6]; both, 60 mg/kg, Cmax): 94100 ± 11100 ng/mL | half-life ([6]; both, 60 mg/kg, T1/2): 312 ± 48 min | Cmax ([6]; both, 60 mg/kg, mean Cmax): 94100 ng/mL | half-life ([6]; both, elimination half-lives): 60 to 732 min | AUC(0-t) ([6]; female, 1 mg/kg, AUC0-24): 1150 ng·h/mL | Cmax ([6]; female, 1 mg/kg, Cmax): 679 ng/mL | half-life ([6]; female, 1 mg/kg, T1/2): 41.4 min | AUC(0-t) ([6]; female, 3 mg/kg, AUC0-24): 3210 ng·h/mL | Cmax ([6]; female, 3 mg/kg, Cmax): 3340 ng/mL | AUC(0-t) ([6]; female, 30 mg/kg, AUC0-24): 14900 ng·h/mL | Cmax ([6]; female, 30 mg/kg, Cmax): 37000 ng/mL | half-life ([6]; female, 30 mg/kg, T1/2): 978 min | AUC(0-t) ([6]; female, 60 mg/kg, AUC0-24): 60100 ng·h/mL | Cmax ([6]; female, 60 mg/kg, Cmax): 88200 ng/mL | half-life ([6]; female, 60 mg/kg, T1/2): 276 min | AUC(0-t) ([6]; male, 1 mg/kg, AUC0-24): 1710 ng·h/mL | Cmax ([6]; male, 1 mg/kg, Cmax): 769 ng/mL | half-life ([6]; male, 1 mg/kg, T1/2): 66 min | AUC(0-t) ([6]; male, 3 mg/kg, AUC0-24): 1870 ng·h/mL | half-life ([6]; male, 3 mg/kg, T1/2): 192 min | AUC(0-t) ([6]; male, 30 mg/kg, AUC0-24): 16200 ng·h/mL | Cmax ([6]; male, 30 mg/kg, Cmax): 40000 ng/mL | half-life ([6]; male, 30 mg/kg, T1/2): 486 min | AUC(0-t) ([6]; male, 60 mg/kg, AUC0-24): 72300 ng·h/mL | Cmax ([6]; male, 60 mg/kg, Cmax): 99800 ng/mL | half-life ([6]; male, 60 mg/kg, T1/2): 342 min | increase of exposure (AUCinf-obs) [7]: 84 fold | increase of maximum plasma concentration (Cmax) [7]: 37 fold | HL_Lambda_z ([7]; 10 mg/kg): 7.0 ± 0.9 h | HL_Lambda_z ([7]; 20 mg/kg): 7.2 ± 2.3 h | CL/F ([8]; 0.3 mg/kg): 15.3 mL/min/kg | Tmax ([8]; 0.3 mg/kg): 2.5 h | half-life ([8]; 0.3 mg/kg): 240 ± 78 min | AUC(0-inf) ([8]; 0.3 mg/kg): 380 ± 149 ng·h/mL | Cmax ([8]; 0.3 mg/kg): 53.8 ± 27.5 ng/mL | AUC(0-t) ([8]; 3 mg/kg): 3860 ± 862 ng·h/mL | CL/F ([8]; 3 mg/kg): 11.2 mL/min/kg | Tmax ([8]; 3 mg/kg): 3.3 h | half-life ([8]; 3 mg/kg): 594 ± 360 min | AUC(0-inf) ([8]; 3 mg/kg): 4530 ± 490 ng·h/mL | Cmax ([8]; 3 mg/kg): 496 ± 145 ng/mL | AUC(0-t) ([8]; 10 mg/kg): 10300 ± 3060 ng·h/mL | CL/F ([8]; 10 mg/kg): 15.3 mL/min/kg | Tmax ([8]; 10 mg/kg): 3.8 h | half-life ([8]; 10 mg/kg): 420 ± 54 min | AUC(0-inf) ([8]; 10 mg/kg): 11800 ± 3670 ng·h/mL | Cmax ([8]; 10 mg/kg): 1080 ± 279 ng/mL | AUC(0-t) ([8]; 20 mg/kg): 13400 ± 8020 ng·h/mL | CL/F ([8]; 20 mg/kg): 20.1 mL/min/kg | Tmax ([8]; 20 mg/kg): 3.2 h | half-life ([8]; 20 mg/kg): 432 ± 138 min | AUC(0-inf) ([8]; 20 mg/kg): 15500 ± 9150 ng·h/mL | Cmax ([8]; 20 mg/kg): 1480 ± 864 ng/mL | AUC(0-t) ([8]; 30 mg/kg): 20500 ± 8050 ng·h/mL | CL/F ([8]; 30 mg/kg): 16.5 mL/min/kg | Tmax ([8]; 30 mg/kg): 3.6 h | half-life ([8]; 30 mg/kg): 1060 ± 828 min | AUC(0-inf) ([8]; 30 mg/kg): 31900 ± 7360 ng·h/mL | Cmax ([8]; 30 mg/kg): 1990 ± 873 ng/mL | preventing or reducing mortality [9]: highly effective in preventing or reducing mortality | toxicity in animal model [9]: nontoxic | solubility ([10]; oil or lipid, absolute solubility of ST-246 in oils): < 5000 µg/mL | solubility ([10]; pH 6.8, aqueous buffer, ST-246 Solubility): < 100 µg/mL | solubility ([10]; simulated gastric fluid, ST-246 Solubility): < 100 µg/mL | solubility ([10]; water, ST-246 Solubility): < 100 µg/mL | Solubility of ST-246 (4 ° C.): 5.47 and 6.05 | Solubility of ST-246 (25 ° C.): 9.21 and 10.59 | Solubility of ST-246 (40 ° C.): 12.99 and 12.23 | Solubility of ST-246 (60 ° C.): 17.41 and 16.21 | preventing or reducing mortality [11]: highly effective in preventing or reducing mortality | toxicity in animal model [11]: nontoxic
